Laboratory results reported in ChEMBL document CHEMBL5500412, “Discovery of Highly Selective, Potent, Covalent, and Orally Bioavailable Factor XIIa Inhibitors for the Treatment of Thrombo-Inflammation” (J Med Chem, 2024).
Blank lines part the entries; values can stand above or below the molecule they belong to. Active and inactive are the calls of the source. The rule behind the calls is not given here.

Legend:
Coagulation factor XII [1] = biological target: T1, Coagulation factor XII (Homo sapiens, UniProt P00748); assay: Inhibition of FXIIa (unknown origin) using H-D-Pro-Phe-Arg-pNA as substrate incubated for 20 mins followed by substrate addition by spectrophotometric analysis
T1 sequence (P00748 whole entry): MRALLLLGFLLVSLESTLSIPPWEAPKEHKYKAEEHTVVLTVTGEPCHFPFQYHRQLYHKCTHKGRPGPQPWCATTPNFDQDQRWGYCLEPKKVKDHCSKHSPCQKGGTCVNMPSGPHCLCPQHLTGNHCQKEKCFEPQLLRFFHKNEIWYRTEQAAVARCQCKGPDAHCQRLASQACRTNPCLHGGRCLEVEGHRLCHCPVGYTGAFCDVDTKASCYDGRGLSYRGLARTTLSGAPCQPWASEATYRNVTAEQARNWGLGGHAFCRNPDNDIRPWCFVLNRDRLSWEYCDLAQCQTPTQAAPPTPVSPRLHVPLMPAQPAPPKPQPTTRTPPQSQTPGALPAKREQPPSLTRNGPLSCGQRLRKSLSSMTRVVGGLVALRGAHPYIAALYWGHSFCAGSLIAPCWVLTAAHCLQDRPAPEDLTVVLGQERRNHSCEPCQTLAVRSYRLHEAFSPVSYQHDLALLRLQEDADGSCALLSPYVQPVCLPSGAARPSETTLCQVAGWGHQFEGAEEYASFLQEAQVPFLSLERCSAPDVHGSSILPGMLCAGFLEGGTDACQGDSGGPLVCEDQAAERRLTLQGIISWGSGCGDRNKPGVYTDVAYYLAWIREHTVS

[2] = Selectivity index, ratio of IC50 for FXa (unknown origin) to IC50 for FXIIa (unknown origin)
Mus musculus [3] = assay: Antithrombotic activity in carrageenan induced thrombosis in male BALB/c mouse model assessed as inhibition of tail thrombosis at 20 to 30 mg/kg, IG preadministered with PBS for 7 days followed by carrageenan stimulation on day 7 and measured after 2 days post compound administration by H and E staining based analysis; type: functional, organism-based; conditions: dose 20-30 mg/kg, time 2.0 day
Mus musculus [4] = assay: Antiinflammatory activity in carrageenan-induced thrombosis in male BALB/c mouse model assessed as reduction in IL-1 beta level administered as oral dose by ELISA method; type: functional, organism-based; conditions: dose 10-30 mg/kg
Mus musculus [5] = assay: Antiinflammatory activity in carrageenan-induced thrombosis in male BALB/c mouse model assessed as reduction in IL-6 level administered as oral dose by ELISA method; type: functional, organism-based; conditions: dose 10-30 mg/kg
Plasma = assay: Anticoagulant activity in human plasma assessed as prolongation of […] time at 300 uM incubated for 2 mins by PT reagent based assay; type: functional, cell-free
[6] = biological target: T2, Coagulation factor XII (Homo sapiens) (UniProt P00748); assay: Covalent inhibition of FXIIa (unknown origin) at 20 to 40 nM measured after 10 mins; conditions: dose 20-40 nM
T2 sequence (whole entry): T1 sequence (P00748 whole entry)

Coagulation factor XII [7] = biological target: T1, Coagulation factor XII; assay: Binding affinity to FXIIa (unknown origin) assessed as inhibition constant using H-D-Pro-Phe-Arg-pNA.2HCl as substrate by spectrophotometric analysis
[8] = biological target: T2, Coagulation factor XII (Homo sapiens); assay: Binding affinity to FXIIa (unknown origin) assessed as inactivation rate using H-D-Pro-Phe-Arg-pNA.2HCl as substrate by spectrophotometric analysis
[9] = biological target: T2, Coagulation factor XII (Homo sapiens); assay: Inhibition of FXIIa (unknown origin) using H-D-Pro-Phe-Arg-pNA as substrate preincubated for 20 mins followed by 100 fold dilution upto 120 mins then substrate addition for 60 mins by jump dilution assay; conditions: time <= 200.0 min
[10] = Half life in BALB/c mouse at 1 mg/kg, iv measured upto 24 hrs by LC-MS/MS analysis; type: ADME, organism-based; conditions: in vivo
[11] = Tmax in BALB/c mouse at 1 mg/kg, iv measured upto 24 hrs by LC-MS/MS analysis; type: ADME, organism-based; conditions: in vivo
[12] = Apparent volume of distribution in BALB/c mouse at 1 mg/kg, iv measured upto 24 hrs by LC-MS/MS analysis; type: ADME, organism-based; conditions: in vivo, read-out: Vz
[13] = AUC (0 to infinity) in BALB/c mouse at 1 mg/kg, iv measured upto 24 hrs by LC-MS/MS analysis; type: ADME, organism-based; conditions: in vivo
[14] = MRT (0 to infinity) in BALB/c mouse at 1 mg/kg, iv measured upto 24 hrs by LC-MS/MS analysis; type: ADME, organism-based; conditions: in vivo
[15] = Half life in BALB/c mouse at 5 mg/kg, po measured upto 24 hrs by LC-MS/MS analysis; type: ADME, organism-based; conditions: in vivo
[16] = Tmax in BALB/c mouse at 5 mg/kg, po measured upto 24 hrs by LC-MS/MS analysis; type: ADME, organism-based; conditions: in vivo
[17] = AUC (0 to infinity) in BALB/c mouse at 5 mg/kg, po measured upto 24 hrs by LC-MS/MS analysis; type: ADME, organism-based; conditions: in vivo
[18] = Oral bioavailability in BALB/c mouse at 5 mg/kg measured upto 24 hrs by LC-MS/MS analysis; type: ADME, organism-based; conditions: in vivo
Mus musculus [19] = assay: Antiinflammatory activity in carrageenan-induced thrombosis in male BALB/c mouse model assessed as reduction in IL-1 beta level at 10 to 30 mg/kg, po by ELISA method; type: functional, organism-based; conditions: dose 10-30 mg/kg
[20] = Toxicity in BALB/c mouse assessed as prolongation of bleeding time at 60 mg/kg, po measured after 90 mins; type: organism-based; conditions: in vivo, 1.5 h
[21] = Toxicity in BALB/c mouse assessed as effect on heart at 60 to 100 mg/kg, po measured after 14 days by H and E staining based analysis; type: organism-based; conditions: in vivo, 336 h, dose 60-100 mg/kg, time 14 day
[22] = Toxicity in BALB/c mouse assessed as effect on liver at 60 to 100 mg/kg, po measured after 14 days by H and E staining based analysis; type: organism-based; conditions: in vivo, 336 h, dose 60-100 mg/kg, time 14 day
[23] = Toxicity in BALB/c mouse assessed as effect on lung at 60 to 100 mg/kg, po measured after 14 days by H and E staining based analysis; type: organism-based; conditions: in vivo, 336 h, dose 60-100 mg/kg, time 14 day
[24] = Toxicity in BALB/c mouse assessed as effect on spleen at 60 to 100 mg/kg, po measured after 14 days by H and E staining based analysis; type: organism-based; conditions: in vivo, 336 h, dose 60-100 mg/kg, time 14 day
[25] = Toxicity in BALB/c mouse assessed as effect on ALP level in serum at 60 to 100 mg/kg, po measured after 14 days; type: organism-based; conditions: in vivo, 336 h, dose 60-100 mg/kg, time 14 day
[26] = Toxicity in BALB/c mouse assessed as effect on ALT level in serum at 60 to 100 mg/kg, po measured after 14 days; type: organism-based; conditions: in vivo, 336 h, dose 60-100 mg/kg, time 14 day
[27] = Toxicity in BALB/c mouse assessed as effect on AST level in serum at 60 to 100 mg/kg, po measured after 14 days; type: organism-based; conditions: in vivo, 336 h, dose 60-100 mg/kg, time 14 day
[28] = Toxicity in BALB/c mouse assessed as effect on UA level in serum at 60 to 100 mg/kg, po measured after 14 days; type: organism-based; conditions: in vivo, 336 h, dose 60-100 mg/kg, time 14 day
[29] = Toxicity in BALB/c mouse assessed as effect on UREA level in serum at 60 to 100 mg/kg, po measured after 14 days; type: organism-based; conditions: in vivo, 336 h, dose 60-100 mg/kg, time 14 day
[30] = Toxicity in BALB/c mouse assessed as effect on LDH level in serum at 60 to 100 mg/kg, po measured after 14 days; type: organism-based; conditions: in vivo, 336 h, dose 60-100 mg/kg, time 14 day
[31] = Toxicity in BALB/c mouse assessed as effect on HBDH level in serum at 60 to 100 mg/kg, po measured after 14 days; type: organism-based; conditions: in vivo, 336 h, dose 60-100 mg/kg, time 14 day

IC50 (Coagulation factor XII [1]): 37 nM
Ratio IC50 [2]: > 670
Structure (SMILES): CC(C)N1CCN(c2ccc(C(=O)n3nc(-c4ccccn4)nc3N)c3ccccc23)CC1
Activity (Mus musculus [3]): Active
Activity (Mus musculus [4]): Dose-Dependent Effect
Activity (Mus musculus [5]): Dose-Dependent Effect
Activity (Plasma): inactive

Ratio IC50 [2]: > 1190
inhibition [6]: Active
Ki (Coagulation factor XII [7]): 11.4 nM
Kinact [8]: 0.027 min⁻¹
inhibition [9]: inactive
half-life [10]: 0.75 h
Tmax [11]: 0.39 h
Vd [12]: 105 L/kg
AUC(0-inf) [13]: 13.3 ng·h/mL
MRT inf [14]: 1.58 h
half-life [15]: 1.71 h
Tmax [16]: 1 h
AUC(0-inf) [17]: 17.8 ng·h/mL
bioavailability [18]: 28.2%
Structure (SMILES): CC(C)N1CCCN(c2ccc(C(=O)n3nc(-c4ccccn4)nc3N)c3ccccc23)CC1
Activity (Mus musculus [3]): Active
Activity (Mus musculus [19]): Active
Activity [20]: Non-Toxic
Activity [21]: Non-Toxic
Activity [22]: Non-Toxic
Activity [23]: Non-Toxic
Activity [24]: Non-Toxic
Activity [25]: Non-Toxic
Activity [26]: Non-Toxic
Activity [27]: Non-Toxic
Activity [28]: Non-Toxic
Activity [29]: Non-Toxic
Activity [30]: Non-Toxic
Activity [31]: Non-Toxic
Activity (Plasma): inactive
